Laboratory results: patent US20250215029A1 (Recludix Pharma, Inc., priority 2022, published 2025)
Where two headings read alike, the source gives them in different places.

Legend:
[1] = target: T1, Recombinant STAT3 protein (STAT3 (G127-I722)) (Homo sapiens, UniProt P40763); assay: STAT3 Fluorescence Polarization (FP) Assay; assay type: binding; settings: probe 5-FAM-GpYLPQTV-NH2 2 nM, 45-minute incubation
T1 construct: Recombinant STAT3 protein (STAT3 (G127-I722))
Method in brief: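 Read-out is fluorescence polarization (mP) after 45 min at room temperature, with IC50 fitted by nonlinear regression against log compound concentration. Mixture: 25 nM STAT3 (G127-I722), 2 nM 5-FAM-GpYLPQTV-NH2 phosphopeptide, 10 mM HEPES pH 7.4 buffer, 1% DMSO.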

[2] = target: T2, Recombinant STAT6 protein (STAT6 (W123-T658)) (Homo sapiens, UniProt P42226); assay: STAT6 Fluorescence Polarization (FP) Assay; assay type: binding; settings: 45-minute incubation
T2 construct: Recombinant STAT6 protein (STAT6 (W123-T658))
T2 sequence (P42226 123-658): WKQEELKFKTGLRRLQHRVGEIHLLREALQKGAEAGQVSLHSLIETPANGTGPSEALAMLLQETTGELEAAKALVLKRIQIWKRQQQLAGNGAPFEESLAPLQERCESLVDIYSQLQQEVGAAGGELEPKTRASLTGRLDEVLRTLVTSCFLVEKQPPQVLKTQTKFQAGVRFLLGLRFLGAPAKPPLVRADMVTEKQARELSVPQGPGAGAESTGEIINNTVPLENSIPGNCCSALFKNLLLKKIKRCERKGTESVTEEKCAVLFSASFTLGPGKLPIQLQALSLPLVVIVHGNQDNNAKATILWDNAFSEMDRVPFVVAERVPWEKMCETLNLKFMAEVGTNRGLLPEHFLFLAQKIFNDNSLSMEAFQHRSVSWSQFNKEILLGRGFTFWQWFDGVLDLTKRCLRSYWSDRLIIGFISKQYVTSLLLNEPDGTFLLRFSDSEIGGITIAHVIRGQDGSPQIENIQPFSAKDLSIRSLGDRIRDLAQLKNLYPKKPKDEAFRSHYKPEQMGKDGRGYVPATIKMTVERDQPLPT
Method in brief: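 Probe displacement format: serially diluted compounds incubated 45 min at room temperature with 2 nM fluorescent phosphopeptide and 250 nM STAT6 (W123-T658) in pH 7.4 HEPES buffer, 1% DMSO final. Polarization signal plotted against log concentration, IC50 fitted by nonlinear regression.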

[3] = STAT3 (G127-I722) 25 nM, read-out: STAT3 (FP assay IC50 class)
[4] = STAT6 (W123-T658) 250 nM, probe 5-FAM-Ap[…]-NH2 2 nM, read-out: STAT6 (FP assay IC50 class)
[5] = STAT3 25 nM, read-out: STAT3 (FP assay IC50)
[6] = STAT6 250 nM, probe 5-FAM-Ap[…]-NH2 2 nM, read-out: STAT6 (FP assay IC50)

T1 sequence (P40763 127-722): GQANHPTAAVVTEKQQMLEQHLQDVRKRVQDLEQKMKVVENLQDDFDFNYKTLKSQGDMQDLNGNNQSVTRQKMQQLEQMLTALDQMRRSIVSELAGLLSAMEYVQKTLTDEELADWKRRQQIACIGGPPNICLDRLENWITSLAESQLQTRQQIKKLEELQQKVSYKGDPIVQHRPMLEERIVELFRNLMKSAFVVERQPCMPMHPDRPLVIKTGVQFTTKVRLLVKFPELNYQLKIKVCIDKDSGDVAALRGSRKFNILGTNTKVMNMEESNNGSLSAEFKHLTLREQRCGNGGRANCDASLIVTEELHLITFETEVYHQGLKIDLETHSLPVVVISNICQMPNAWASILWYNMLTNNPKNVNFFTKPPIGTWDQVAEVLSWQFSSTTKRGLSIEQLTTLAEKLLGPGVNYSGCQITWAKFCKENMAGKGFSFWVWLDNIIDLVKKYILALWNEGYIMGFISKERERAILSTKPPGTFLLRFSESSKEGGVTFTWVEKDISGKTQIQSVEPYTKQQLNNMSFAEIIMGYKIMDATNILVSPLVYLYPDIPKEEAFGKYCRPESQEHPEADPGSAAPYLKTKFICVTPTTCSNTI

IC50 [1, 3]	IC50 [2, 4]	IC50 [1, 5]	IC50 [2, 6]	Compound	IC50 ([2]; STAT6 (W123-T658) 250 nM, probe 5-FAM-ApYKPFQDLI-NH2 2 nM, read-out: STAT6 (FP assay IC50 class))
< 0.1 µM	3 to 30 µM			Cc1ccncc1C1CN(C(=O)[C@@H]2CC[C@@H]3C[C@H](C)C[C@H](NC(=O)c4cc5cc([C@@H](F)P(=O)(O)O)ccc5s4)C(=O)N32)C1 (single isomer, unassigned) [Compound 753]	
		< 0.1 µM	0.3 to 3 µM	N#Cc1cccc(C2CN(C(=O)[C@@H]3CC[C@@H]4CCC[C@H](NC(=O)c5cc6cc(C(F)(F)P(=O)(O)O)ccc6s5)C(=O)N43)C2)c1 [Compound 51, ((2-(((3S,6S,9aS)-3-(3-(3-cyanophenyl)azetidine-1-carbonyl)-5-oxooctahydro-1H-pyrrolo[1,2-a]azepin-6-yl)carbamoyl)benzo[b]thiophen-5-yl)difluoromethyl) phosphonic acid]	
0.1 to 1 µM	3 to 30 µM			O=C(N[C@H]1CCC[C@H]2CC[C@@H](C(=O)N3CC(c4cc(F)ccc4F)C3)N2C1=O)c1cc2cc(C(F)P(=O)(O)O)ccc2s1 (stereo partly drawn) [Compound 592, ((2-(((3S,6S,9aS)-3-(3-(2,5-difluorophenyl)azetidine-1-carbonyl)-5-oxooctahydro-1H-pyrrolo[1,2-a]azepin-6-yl)carbamoyl)benzo[b]thiophen-5-yl)fluoromethyl)phosphonic acid]	
< 0.1 µM	3 to 30 µM			O=C(N[C@H]1CCC[C@H]2CC[C@@H](C(=O)N3CC(c4cnccc4N4CC[C@@H](F)C4)C3)N2C1=O)c1cc2cc(CP(=O)(O)O)ccc2s1 [Compound 687, ((2-(((3S,6S,9aS)-3-(3-(4-((R)-3-fluoropyrrolidin-1-yl)pyridin-3-yl)azetidine-1-carbonyl)-5-oxooctahydro-1H-pyrrolo[1,2-a]azepin-6-yl)carbamoyl)benzo [b]thiophen-5-yl)methyl) phosphonic acid]	
< 0.1 µM	3 to 30 µM			CN(C)c1ncncc1C1CN(C(=O)[C@@H]2CC[C@@H]3CCC[C@H](NC(=O)c4cc5cc([C@H](F)P(=O)(O)O)ccc5s4)C(=O)N32)C1 (single isomer, unassigned) [Compound 665]	
		0.1 to 1 µM	3 to 30 µM	O=C(N[C@H]1CC[C@@H](O)C[C@H]2CC[C@@H](C(=O)N3CC(C(=O)N4CCOCC4)C3)N2C1=O)c1cc2cc(C(F)(F)P(=O)(O)O)ccc2s1 [Compound 2, (difluoro(2-(((3S,6S,9R,10aR)-9-hydroxy-3-(3-(morpholine-4-carbonyl)azetidine-1-carbonyl)-5-oxodecahydropyrrolo [1,2-a]azocin-6-yl)carbamoyl)benzo[b]thiophen-5-yl)methyl) phosphonic acid]	
1 to 10 µM	3 to 30 µM			O=C(N[C@H]1CCC[C@H]2CC[C@@H](C(=O)N3CC(c4cnccc4Cl)C3)N2C1=O)c1cc2cc(CP(=O)(O)O)ccc2s1 [Compound 519, ((2-(((3S,6S,9aS)-3-(3-(4-chloropyridin-3-yl)azetidine-1-carbonyl)-5-oxooctahydro-1H-pyrrolo[1,2-a]azepin-6-yl)carbamoyl)benzo[b]thiophen-5-yl)methyl)phosphonic acid]	
0.1 to 1 µM	≤ 0.3 µM			N#C[C@@H]1CN(C(=O)[C@@H]2CC[C@@H]3CCCC[C@H](NC(=O)c4cc5cc([C@H](F)P(=O)(O)O)ccc5s4)C(=O)N32)C[C@H]1c1cc[nH]c(=O)c1 (single isomer, unassigned) [Compound 872]	
< 0.1 µM	3 to 30 µM			O=C(N[C@H]1CCC[C@H]2CC[C@@H](C(=O)N3CC(c4cnccc4N4CCOCC4)C3)N2C1=O)c1cc2cc(C(F)P(=O)(O)O)ccc2s1 (stereo partly drawn) [Compound 626, (fluoro(2-(((3S,6S,9aS)-3-(3-(4-morpholinopyridin-3-yl)azetidine-1-carbonyl)-5-oxooctahydro-1H-pyrrolo[1,2-a]azepin-6-yl)carbamoyl)benzo [b]thiophen-5-yl)methyl) phosphonic acid]	
1 to 10 µM	3 to 30 µM			O=C(N[C@H]1CC[C@H]2CC[C@@H](C(=O)N3CC(C(=O)N4CCOCC4)C3)N2C1=O)c1cc2cc(C(F)(F)P(=O)(O)O)ccc2s1 [Compound 731, (difluoro(2-(((3S,6S,8aS)-3-(3-(morpholine-4-carbonyl)azetidine-1-carbonyl)-5-oxooctahydro-indolizin-6-yl)carbamoyl)benzo [b]thiophen-5-yl)methyl) phosphonic acid]	
< 0.1 µM	0.3 to 3 µM			Cn1ccnc1C1CN(C(=O)[C@@H]2CC[C@@H]3CCC[C@H](NC(=O)c4cc5cc(C(F)(F)P(=O)(O)O)ccc5s4)C(=O)N32)C1 [Compound 799, (difluoro(2-(((3S,6S,9aS)-3-(3-(1-methyl-1H-imidazol-2-yl)azetidine-1-carbonyl)-5-oxooctahydro-1H-pyrrolo[1,2-a]azepin-6-yl)carbamoyl)benzo [b]thiophen-5-yl)methyl) phosphonic acid]	
1 to 10 µM	0.3 to 3 µM			Cn1ccc(N2CC[C@@H](NC(=O)[C@@H]3CC[C@@H]4CCCC[C@H](NC(=O)c5cc6cc(C(F)P(=O)(O)O)ccc6s5)C(=O)N43)C2)n1 (stereo partly drawn) [Compound 533, (fluoro(2-(((3S,6S,10aS)-3-(((R)-1-(1-methyl-1H-pyrazol-3-yl)pyrrolidin-3-yl)carbamoyl)-5-oxodecahydropyrrolo[1,2-a]azocin-6-yl)carbamoyl)benzo[b]thiophen-5-yl)methyl)phosphonic acid]	
		0.1 to 1 µM	3 to 30 µM	O=C(N[C@H]1CC[C@@H](OCc2ccccc2)C[C@H]2CC[C@@H](C(=O)N3CC(C(=O)N4CCOCC4)C3)N2C1=O)c1cc2cc(C(F)(F)P(=O)(O)O)ccc2s1 [Compound 6, ((2-(((3S,6S,9R,10aR)-9-(benzyloxy)-3-(3-(morpholine-4-carbonyl)azetidine-1-carbonyl)-5-oxodecahydropyrrolo [1,2-a]azocin-6-yl)carbamoyl)benzo[b]thiophen-5-yl)difluoromethyl) phosphonic acid]	
1 to 10 µM	3 to 30 µM			COc1cc(C(F)F)ncc1C1CN(C(=O)[C@@H]2CC[C@@H]3CCC[C@H](NC(=O)c4cc5cc(CP(=O)(O)O)ccc5s4)C(=O)N32)C1 [Compound 593, ((2-(((3S,6S,9aS)-3-(3-(6-(difluoromethyl)-4-methoxypyridin-3-yl)azetidine-1-carbonyl)-5-oxooctahydro-1H-pyrrolo[1,2-a]azepin-6-yl)carbamoyl)benzo [b]thiophen-5-yl)methyl) phosphonic acid]	
		< 0.1 µM	3 to 30 µM	O=C(N[C@H]1CCCC[C@H]2CC[C@@H](C(=O)N3CC(NC(=O)C4CC4)(c4ccccn4)C3)N2C1=O)c1cc2cc(C(F)(F)P(=O)(O)O)ccc2s1 [Compound 123, ((2-(((3S,6S, 10aS)-3-(3-(cyclopropane-carboxamido)-3-(pyridin-2-yl)azetidine-1-carbonyl)-5-oxodeca-hydropyrrolo [1,2-a]azocin-6-yl)carbamoyl)benzo[b]thiophen-5-yl)difluoromethyl) phosphonic acid]	
1 to 10 µM	3 to 30 µM			Cc1nccc(F)c1C1CN(C(=O)[C@@H]2CC[C@@H]3CCC[C@H](NC(=O)c4cc5cc(CP(=O)(O)O)ccc5s4)C(=O)N32)C1 [Compound 580, ((2-(((3S,6S,9aS)-3-(3-(4-fluoro-2-methylpyridin-3-yl)azetidine-1-carbonyl)-5-oxooctahydro-1H-pyrrolo[1,2-a]azepin-6-yl)carbamoyl)benzo[b]thiophen-5-yl)methyl)phosphonic acid]	
< 0.1 µM	3 to 30 µM			C[C@H]1C[C@H]2CC[C@@H](C(=O)N3CC(c4cncnc4N4CCC4)C3)N2C(=O)[C@@H](NC(=O)c2cc3cc(CP(=O)(O)O)ccc3s2)C1 [Compound 678, ((2-(((3S,6S,8R,9aR)-3-(3-(4-(azetidin-1-yl)pyrimidin-5-yl)azetidine-1-carbonyl)-8-methyl-5-oxooctahydro-1H-pyrrolo[1,2-a]azepin-6-yl)carbamoyl)benzo [b]thiophen-5-yl)methyl) phosphonic acid]	

Compound	IC50 [1, 3]	IC50 [2, 4]	IC50 [1, 5]	IC50 [2, 6]	IC50 ([2]; STAT6 (W123-T658) 250 nM, probe 5-FAM-ApYKPFQDLI-NH2 2 nM, read-out: STAT6 (FP assay IC50 class))
N#CC1CN(C(=O)[C@@H]2C[C@@H](O)[C@H]3C/C=C\C[C@H](NC(=O)c4cc5cc(C(F)(F)P(=O)(O)O)ccc5s4)C(=O)N32)CC1c1ccccc1 (relative stereo) [Compound 758, ((2-(((1R,3S,6S,10aR,Z)-3-((rel-trans)-3-cyano-4-phenylpyrrolidine-1-carbonyl)-1-hydroxy-5-oxo-1,2,3,5,6,7,10,10a-octahydropyrrolo[1,2-a]azocin-6-yl)carbamoyl)benzo [b]thiophen-5-yl)difluoromethyl) phosphonic acid]	1 to 10 µM				0.3 to 3 µM
